According to BindingDB's records for PubMed 39270452 (Haihe Biopharma):

Molecular target: T1, Ectonucleotide pyrophosphatase/phosphodiesterase family member 1 (Homo sapiens, UniProt P22413)
T1 sequence (P22413 whole entry): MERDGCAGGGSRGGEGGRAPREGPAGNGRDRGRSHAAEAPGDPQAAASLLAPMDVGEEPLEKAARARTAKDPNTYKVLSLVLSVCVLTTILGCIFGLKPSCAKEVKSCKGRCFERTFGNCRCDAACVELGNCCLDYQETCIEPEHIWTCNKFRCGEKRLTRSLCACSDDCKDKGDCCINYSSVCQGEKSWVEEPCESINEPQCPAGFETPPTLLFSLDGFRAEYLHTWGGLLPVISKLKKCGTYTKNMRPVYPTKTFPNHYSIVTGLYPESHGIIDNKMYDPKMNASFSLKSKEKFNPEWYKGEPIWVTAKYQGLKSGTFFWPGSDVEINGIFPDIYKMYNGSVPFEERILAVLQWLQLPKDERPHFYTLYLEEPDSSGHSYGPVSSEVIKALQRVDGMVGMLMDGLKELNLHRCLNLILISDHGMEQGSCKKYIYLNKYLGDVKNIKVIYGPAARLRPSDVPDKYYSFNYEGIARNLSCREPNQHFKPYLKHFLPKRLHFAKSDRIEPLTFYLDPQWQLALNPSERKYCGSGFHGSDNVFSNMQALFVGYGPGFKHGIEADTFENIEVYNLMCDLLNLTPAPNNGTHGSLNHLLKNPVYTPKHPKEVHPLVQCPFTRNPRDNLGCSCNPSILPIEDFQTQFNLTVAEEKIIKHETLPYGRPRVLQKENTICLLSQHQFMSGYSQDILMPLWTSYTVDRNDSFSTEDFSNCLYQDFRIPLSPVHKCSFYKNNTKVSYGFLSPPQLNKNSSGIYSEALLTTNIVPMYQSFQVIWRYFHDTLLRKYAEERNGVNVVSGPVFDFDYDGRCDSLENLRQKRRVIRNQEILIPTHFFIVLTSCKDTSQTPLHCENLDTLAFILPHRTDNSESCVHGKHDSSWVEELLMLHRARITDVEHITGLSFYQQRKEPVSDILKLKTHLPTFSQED
Test: Inhibition of human recombinant ENPP1 at pH 7.5

IC50: 0.089 µM
SMILES: COc1cc2nccc(Nc3ccc(CC(=O)NO)cc3)c2cc1OC [US20240383893, Compound A-1]
